From patent EP0632029A1, “Benzylidene hydantoin derivative, ultraviolet ray absorbent and external preparation for skin including the same” (SHISEIDO COMPANY LIMITED, priority 1993, dated 1995) come the findings set out here.

What all share (type): physicochemical
Data set [1] is described as follows: Ultraviolet ray absorption, 10ppm in ethanol, spectrophotometer. The note with it: 10ppm in ethanol (99.5%), quartz cell 10mm. As for the experimental part:
Ultraviolet ray absorptivities of the compound 1, 3 and comparison (2-hydroxy-4-methoxybenzophenone; UV-A absorbent) were measured according to the following method.
The compound 1, 3 and the comparison compound were dissolved in ethanol (99.5%) so as to the concentration be 10ppm, and absorption were measured by using quartz cell (10mm×10mm) and the spectrophotometer UVIDEC-610 (JASCO CORPORATION).

The nature of data set [2]: Reaction with metal ion (colour change after FeCl₃). The note with it: for color of the solution BEFORE ADDING FeCl₃: 0.1g in 10 ml of 99.5% ethyl alcohol; for color change of the solution AFTER ADDING FeCl₃: 0.1g in 10 ml of 99.5% ethyl alcohol plus 2 ml of 0.02% FeCl₃. As for the experimental part:
Reactivities with trivalent iron ion of the following compounds 1 to 3 as examples of the benzylidene hydantoin derivative and 2-hydroxy-4-methoxybenzophenone (comparison 1) and 2-hydroxy-5-methylphenylbenzotriazol (comparison 2) were tested. (Method)
0.1g of each compounds were dissolved in 10 ml of 99.5% ethyl alcohol and added 2 ml of 0.02% FeCl₃ (99.5% ethyl alcohol solution), respectively. After stirring, color change of the solution were observed.

The nature of data set [3]: UV absorption maximum in ethanol (characterisation of the examples). The note with it: for ε: at λmax.
Another data set can be described thus: Solubility.

Take `COc1ccc(C(=O)c2ccccc2)c(O)c1` [COMPARISON, 2-hydroxy-4-methoxybenzophenone, reference compound]: the absorption came out at 0.39 in data set [1] (WAVELENGTH 300 nm); 0.35 in data set [1] (WAVELENGTH 310 nm); 0.40 in data set [1] (WAVELENGTH 320 nm); 0.42 in data set [1] (WAVELENGTH 330 nm); 0.34 in data set [1] (WAVELENGTH 340 nm); 0.20 in data set [1] (WAVELENGTH 350 nm). The absorption was 0.11 in data set [1] (WAVELENGTH 360 nm), 0.03 in data set [1] (WAVELENGTH 370 nm) and 0.00 in data set [1] (WAVELENGTH 380 nm).

With `COc1ccc(C=C2NC(=O)N(CCCCCCCCCCCCCCCC(C)C)C2=O)cc1` [compound 2, 5-(4-METHOXYBENZYLIDENE)-3-[…]], the “color of the solution BEFORE ADDING FeCl₃” value in data set [2] is “COLORLESS OR LIGHT YELLOW”. In addition, the “color change of the solution AFTER ADDING FeCl₃” value (“color change” below) in data set [2] is reported as “NO CHANGE”. The “λmax (ethanol)” value in data set [3] is on record as 334 nm. In addition, in data set [3], the ε is 31,500. Also, the results for the Solubility in the data set “Solubility” (CETYL-2-ETHYLHEXANOATE), in the data set “Solubility” (ETHANOL(99.5%)) and in “Solubility” (OLIVE OIL) were 14%, 4.0% and 17%, respectively.

`CCCCCCCCN1C(=O)NC(=Cc2ccc(OC)cc2)C1=O` [COM. 1, 5-(4-methoxybenzylidene)-3-n-octyl hydantoin, reference compound]: in data set [2], the “color of the solution BEFORE ADDING FeCl₃” value is listed as “LIGHT YELLOW”. Moreover, the “color change” value in data set [2] is recorded as “BROWNING”. Further, the results for the Solubility in the data set “Solubility” (CETYL-2-ETHYLHEXANOATE), in “Solubility” (ETHANOL(99.5%)) and in the data set “Solubility” (OLIVE OIL) were 0.2%, 0.65% and 0.4%, respectively.

`CCCCC(CC)CN1C(=O)NC(=Cc2ccc(OC)cc2)C1=O` (centres unmarked) [COMPOUND 1, 5-(4-METHOXYBENZYLIDENE)-3-(2-ETHYLHEXYL) HYDANTOIN]: the “color of the solution BEFORE ADDING FeCl₃” value in data set [2] is listed as “COLORLESS OR LIGHT YELLOW”. Moreover, in data set [2], the “color change” value is reported as “NO CHANGE”. In addition, the “λmax (ethanol)” value in data set [3] is on record as 334 nm. The ε in data set [3] is recorded as 32,000. Also, the absorption worked out at 0.36 in data set [1] (WAVELENGTH 300 nm); 0.53 in data set [1] (WAVELENGTH 310 nm); 0.74 in data set [1] (WAVELENGTH 320 nm); 0.95 in data set [1] (WAVELENGTH 330 nm); 0.94 in data set [1] (WAVELENGTH 340 nm); 0.80 in data set [1] (WAVELENGTH 350 nm). Further, the results for the absorption in data set [1] (WAVELENGTH 360 nm), in data set [1] (WAVELENGTH 370 nm) and in data set [1] (WAVELENGTH 380 nm) were 0.40, 0.10 and 0.02, respectively. The Solubility was 2.1% in the data set “Solubility” (CETYL-2-ETHYLHEXANOATE), 1.2% in the data set “Solubility” (ETHANOL(99.5%)) and 3.2% in the data set “Solubility” (OLIVE OIL).

On to `CCCCC(CC)COc1ccc(C=C2NC(=O)N(CC(CC)CCCC)C2=O)cc1` (centres unmarked) [COMPOUND 3, 5-[4-(2-ETHYLHEXYLOXY)BENZYLIDENE]-3-(2-ETHYLEXYL) HYDANTOIN], for which, in data set [2], the “color of the solution BEFORE ADDING FeCl₃” value is recorded as “COLORLESS OR LIGHT YELLOW”. Further, the “color change” value in data set [2] is listed as “NO CHANGE”. Besides, the “λmax (ethanol)” value in data set [3] came to 336 nm. For the same compound, the ε in data set [3] is 32,500. Further, the absorption in data set [1] (WAVELENGTH 300 nm) turned out to be 0.24; in data set [1] (WAVELENGTH 310 nm), 0.39; in data set [1] (WAVELENGTH 320 nm), 0.55; in data set [1] (WAVELENGTH 330 nm), 0.73; in data set [1] (WAVELENGTH 340 nm), 0.76; in data set [1] (WAVELENGTH 350 nm), 0.68. The absorption in data set [1] (WAVELENGTH 360 nm) came out at 0.40; in data set [1] (WAVELENGTH 370 nm), 0.14; in data set [1] (WAVELENGTH 380 nm), 0.03. The figures for the Solubility in “Solubility” (CETYL-2-ETHYLHEXANOATE), in the data set “Solubility” (ETHANOL(99.5%)) and in the data set “Solubility” (OLIVE OIL) were 4%, 1.4% and 7%, respectively.
